According to the PolyMetriX glass transition set:
± gives the standard deviation of the reports.

Row | glass transition temperature [°C] | SMILES
1 | 95.00 | *CCCCCOC(=O)Nc1ccc(Cc2ccc(NC(=O)O*)cc2)cc1 (repeat unit)
2 | 226.50 | *Oc1ccc(-c2ccc(Oc3ccc(C(=O)c4cccc5cccc(C(=O)c6ccc(*)cc6)c45)cc3)cc2)cc1 (repeat unit)
3 | 237.00 | *Oc1cccc(NC(=O)c2ccc(C(=O)c3cccc(C(=O)Nc4ccc(*)cc4)c3)cc2)c1 (repeat unit)
4 | 46.00 | *CC(*)C(=O)Oc1ccccc1C(=O)OC (repeat unit)
5 | 117.00 | *OC(COC(=O)c1ccc(C(*)=O)c2ccccc12)COc1ccc(/N=N/c2ccc(C#N)cc2)cc1 (repeat unit)
6 | 122.00 | *Oc1ccc(CNC(=O)c2ccc(C(=O)NCc3ccc(OC4COC5C(*)COC45)cc3)cc2)cc1 (repeat unit)
7 | 57.00 | *CC(*)(C)C(=O)OCCCCCCCCCCOc1ccc(C(=O)Oc2ccc(C(=O)/C=C/c3c(C)c4ccccc4n3CCCC)cc2)cc1 (repeat unit)
8 | 54.00 | *Oc1ccc(C(C)(C)c2ccc(OC(=O)CCCCC(*)=O)cc2)cc1 (repeat unit)
9 | 250.00 | *Nc1ccc(NC(=O)c2ccc(NC(=O)CCCCCCCCCCCCC(=O)Nc3ccc(C(*)=O)cc3)cc2)cc1C(=O)OCCCCCCCCCCCCCCCC (repeat unit)
10 | 76.00 | *CCCCCCOc1ccc(/C=C/c2ccc(O*)cc2)cc1 (repeat unit)
11 | 15.00 | *CC(*)C(=O)OCCCCCCCCCCOC(=O)c1ccc(OC(=O)c2ccc(C#N)cc2)cc1 (repeat unit)
12 | 60.00 | *CC(COc1ccc(C(C)(C)c2ccc(O*)cc2)cc1)OC(C)=O (repeat unit)
13 | 111.00 | *Oc1ccc(Oc2ccc(/C=N/CCCCCC/N=C/c3ccc(*)cc3)cc2)cc1 (repeat unit)
14 | 175.00 | *Nc1ccc(CC(C)(C)NC(=O)c2ccc(C(*)=O)cc2)cc1 (repeat unit)
15 | 30.00 | *CC(*)C(=O)OCCCCCCOC(=O)c1ccc(OC(=O)c2ccc(C#N)cc2)cc1 (repeat unit)
16 | 165.00 | *c1ccc2c(c1)C(=O)N(c1cc(OCCCCCCCCCCCC)cc(N3C(=O)c4ccc(C(*)(C(F)(F)F)C(F)(F)F)cc4C3=O)c1)C2=O (repeat unit)
17 | 100.00 | *CC(O)COc1ccc(C(C)(C)c2ccc(OCC(O)CN3CCN(*)CC3)cc2)cc1 (repeat unit)
18 | 122.00 | *CCCCCCNC(=O)CCC1(CCC(=O)N*)c2ccccc2-c2ccccc21 (repeat unit)
19 | 47.00 | *Cc1ccc(COC(=O)Cc2ccc(C(=O)O*)cc2)cc1 (repeat unit)
20 | 129.50 | *CCCCCCCOc1ccc(-c2ccc(O*)c3ccccc23)c2ccccc12 (repeat unit)
21 | 128.00 | *Oc1ccc(C(CC)c2ccc(OC(*)=O)cc2)cc1 (repeat unit)

The next lines start with the compound.

Row | SMILES | glass transition temperature [°C]
22 | *c1ccc(Oc2ccc(-c3cccc(-c4ccc(Oc5ccc(-c6c7c(c(*)c8ccccc68)C(=O)N(c6ccccc6)C7=O)cc5)c(C(F)(F)F)c4)n3)cc2C(F)(F)F)cc1 (repeat unit) | 298.00
23 | *O[Si](C)(CCC(F)(F)F)CCC(F)(F)C(F)(F)C(F)(F)C(F)(F)CC[Si](*)(C)CCC(F)(F)F (repeat unit) | -25.00
24 | *OC(COc1ccccc1)CC(*)=O (repeat unit) | 20.00
25 | *Oc1ccc(C2(c3ccc(Oc4ccc(C(=O)c5ccc(*)cc5)cc4)cc3)CCC3CCCCC3C2)cc1 (repeat unit) | 214.00
26 | *c1ccc(Oc2ccc(-c3cnc4cc(-c5ccc6nc(*)cnc6c5)ccc4n3)cc2)cc1 (repeat unit) | 334.00
27 | */C=C/C(C(=O)OCC)C(*)C(=O)OCC (repeat unit) | 6.00
28 | *N=P(Cl)(N=P(Cl)(/N=S(/*)Oc1ccccc1-c1ccccc1)Oc1ccccc1-c1ccccc1)Oc1ccccc1-c1ccccc1 (repeat unit) | 79.00
29 | *Oc1ccc(NC(=O)c2cc(C(=O)Nc3ccc(Oc4ccc(C(C)(C)c5ccc(*)cc5)cc4)cc3)cc(C(C)(C)C)c2)cc1 (repeat unit) | 244.00
30 | *Oc1ccc(/C=C/C(=O)c2ccc(Oc3ccc(C(C)(C)c4ccc(*)c(C)c4)cc3C)cc2)cc1 (repeat unit) | 157.00
31 | *Oc1ccc(S(=O)(=O)c2ccc(Oc3ccc4c(=O)n5c6cc(Oc7ccc8c(c7)nc7c9ccc(*)c%10cccc(c(=O)n87)c%109)ccc6nc5c5cccc3c45)cc2)cc1 (repeat unit) | 374.00
32 | *O[Si](C)(C)O[Si](C)(C)O[Si](C)(C)C#Cc1ccc(C#C[Si](*)(C)C)cc1 (repeat unit) | 96.00
33 | *C(=O)c1ccc2c(c1)C(=O)N(c1cc(-c3nc4ccccc4[nH]3)cc(N3C(=O)c4ccc(*)cc4C3=O)c1)C2=O (repeat unit) | 197.00
34 | *c1ccc(Oc2ccc(C(C)(C)c3ccc(Oc4ccc(N5C(=O)c6ccc(Oc7ccc(C(C)(C)c8ccc(Oc9ccc%10c(c9)C(=O)N(*)C%10=O)cc8)cc7)cc6C5=O)cc4)cc3)cc2)cc1 (repeat unit) | 176.00
35 | */C=C(/*)c1cccc[c]1[Ge]([CH3])([CH3])[CH3] (repeat unit) | 180.00
36 | *c1ccc2oc(-c3ccc(-c4nc5cc(C(*)(C(F)(F)F)C(F)(F)F)ccc5o4)cn3)nc2c1 (repeat unit) | 352.00
37 | *C(=O)OCCN(CCOC(=O)c1ccc2c(c1)C(=O)N(c1c(C)cc(Cc3cc(C)c(N4C(=O)c5ccc(*)cc5C4=O)c(C)c3)cc1C)C2=O)c1ccc(/N=N/c2ccc([N+](=O)[O-])cc2)cc1 (repeat unit) | 179.00
38 | *c1ccc(Sc2ccc(Oc3ccc(Sc4ccc(N5C(=O)c6ccc(Oc7ccc(C(C)(C)c8ccc(Oc9ccc%10c(c9)C(=O)N(*)C%10=O)cc8)cc7)cc6C5=O)cc4)cc3)cc2)cc1 (repeat unit) | 199.00
39 | *c1ccc(Oc2ccc(C(=O)c3ccc(Oc4ccc(-c5c6c(c(*)c7ccccc57)C(=O)N(c5ccc(C(F)(F)F)cc5)C6=O)cc4)cc3)cc2)cc1 (repeat unit) | 260.00
40 | *c1ccc(Oc2ccc(C(C)(C)c3ccc(Oc4ccc(-c5nnc(*)n5-c5ccc(C)cc5)cc4)cc3)cc2)cc1 (repeat unit) | 205.00
41 | *CC(=O)Nc1ccc(C2(c3ccc(NC(=O)c4ccc5c(c4)C(=O)N(*)C5=O)cc3)c3ccccc3-c3ccccc32)cc1 (repeat unit) | 345.00
42 | *Cc1cc2cc(C(=O)Nc3ccc(NC(=O)c4cc5cc(*)c(OC(=O)COc6ccc7ccc(=O)oc7c6)cc5oc4=O)cc3)c(=O)oc2cc1OC(=O)COc1ccc2ccc(=O)oc2c1 (repeat unit) | 252.00

Row | SMILES | glass transition temperature [°C]
43 | *c1ccc(-c2ccc(NC(=O)c3cccc(C(=O)Nc4ccc(-c5ccc(-n6c(=O)c7cc8c(=O)n(*)c(=O)c8cc7c6=O)cc5)cc4)c3)cc2)cc1 (repeat unit) | 227.00
44 | *c1cccc(Oc2ccc(C(c3ccc(Oc4cccc(-n5c(=O)c6cc7c(=O)n(*)c(=O)c7cc6c5=O)c4)cc3)(C(F)(F)F)C(F)(F)F)cc2)c1 (repeat unit) | 226.50 ± 12
45 | *c1ccc(Oc2ccc(N3C(=O)c4ccc(Oc5ccc6c(c5)C(=O)N(c5ncc(*)s5)C6=O)cc4C3=O)cc2)cc1 (repeat unit) | 300.00
46 | *C(=O)c1ccc2c(c1)C(=O)N(c1cc(Br)c(Oc3c(Br)cc(N4C(=O)c5ccc(*)cc5C4=O)cc3Br)c(Br)c1)C2=O (repeat unit) | 323.00
47 | *CCCCCCNC(=O)c1c(Cl)c(Cl)c(C(=O)N*)c(Cl)c1Cl (repeat unit) | 282.00
48 | *Oc1ccc2ccc(Oc3ccc(/C(=N/c4ccc(Oc5ccc(/N=C(\c6ccccc6)c6ccc(*)cc6)cc5)cc4)c4ccccc4)cc3)cc2c1 (repeat unit) | 165.00
49 | *Oc1ccc(Oc2ccc(NC(=O)c3ccc(Oc4ccc(Oc5ccc(C(=O)Nc6ccc(*)cc6)cc5)cc4-c4ccccc4)cc3)cc2)cc1 (repeat unit) | 209.00
50 | *c1ccc(*)s1 (repeat unit) | 152.17 ± 89
51 | *CC(*)c1ccc(C(=O)CCCC)cc1 (repeat unit) | 70.00
52 | *Oc1ccc(S(=O)(=O)c2ccc(Oc3ccc(-c4ccc(*)cc4)cc3)cc2)cc1 (repeat unit) | 221.00
53 | *c1ccc(Oc2ccc(Oc3ccc(-c4cnc5ccc(-c6ccc7ncc(*)nc7c6)cc5n4)cc3)cc2)cc1 (repeat unit) | 235.00
54 | *C(=O)Nc1cccc(NC(=O)c2ccc3[nH]c(-c4cccc(-c5nc6cc(*)ccc6[nH]5)c4)nc3c2)c1 (repeat unit) | 297.50
55 | *c1ccc(Oc2ccc(-c3ccc(Oc4ccc(-n5c(=O)c6cc7c(=O)n(*)c(=O)c7cc6c5=O)cc4)cc3)cc2)cc1 (repeat unit) | 300.00
56 | *CC(*)c1cccs1 (repeat unit) | 71.00
57 | *c1ccc(Oc2ccc(N3C(=O)c4cc(-c5ccc(C(C)(C)C)cc5)c(-c5cc6c(cc5-c5ccc(C(C)(C)C)cc5)C(=O)N(*)C6=O)cc4C3=O)cc2)cc1 (repeat unit) | 370.00
58 | *CCOc1ccc(/C=C2\CC/C(=C\c3ccc(OCCOP(=O)(O*)OC)c(OC)c3)C2=O)cc1OC (repeat unit) | 99.00
59 | *c1ccc2oc(-c3ccc(C(c4ccc(-c5nc6cc(C(*)(c7ccccc7)C(F)(F)F)ccc6o5)cc4)(C(F)(F)F)C(F)(F)F)cc3)nc2c1 (repeat unit) | 334.00
60 | */C=C/C1CC(*)C2C(=O)N(CCCCCCCCCC)C(=O)C12 (repeat unit) | 46.00
61 | *CC(*)C(=O)OC12CC3CC(C)(CC(C)(C3)C1)C2 (repeat unit) | 104.00
62 | *CCC/C=C(/*)c1ccccc1 (repeat unit) | 0.00
63 | *CC(*)(C)C(=O)Nc1cccc(-c2nnc(-c3ccccc3)o2)c1 (repeat unit) | 65.00
